Assay results: US12202861B2, “Inducible, tunable, and multiplex human gene regulation using CRISPR-Cpf1” (The General Hospital Corporation, priority 2017, dated 2025)

What was measured:
Format in all cases: cell-based, human
HBB = test: RT-qPCR activation of endogenous HBB gene promoter in HEK293 cells; settings: single crRNA
Protocol: (§1) FIGS. 1A-1E. Targeted human endogenous gene regulation using individual crRNAs with dLbCpf1-based activators • (A) Schematic showing direct dLbCpf1-VPR and dLbCpf-p65 activator fusion proteins. • (B) Activities of dLbCpf1-p65 or dLbCpf1-VPR using single crRNAs at three endogenous human genes (HBB, AR, and NPY1R) in human HEK293 cells. Relative activation of the indicated gene promoters was measured by RT-qPCR. Three separate individual crRNAs were targeted within promoter sequence 1 kb upstream of the transcription start site for each gene. Relative mRNA expression is calculated by comparison to the control sample in which no crRNA is expressed. (C) Analysis of various crRNAs targeted to the human CD5 and CD22 promoters. 32 crRNAs (16 for each gene) were designed to target sites located within promoter sequences 1 kb upstream or 500 bps downstream of the TSS of each gene. Repetitive sequences were not targeted. After 72 hours post-transfection, cells were stained with fluorescently labeled antibody for CD5 or CD22 protein and fluorescent-positive cells were quantified by flow cytometry. Error bars represent s.e.m. for three biological replicates. […] (D) Schematic illustrating drug-inducible bi-partite dLbCpf1-based activator fusion proteins. dLbCpf1 is fused to one to four DmrA domains and VPR or p65 is fused to a DmrC domain. Because DmrA and DmrC interact only in the presence of an A/C-heterodimerizer drug (red diamond), the bi-partite activator is only reconstituted in the presence of the drug. (E) Activities of drug-inducible bi-partite dLbCpf1-based activators using single crRNAs at three endogenous human genes (HBB, AR, and NPY1R) in human HEK293 cells. Relative activation of the indicated gene promoters was measured by RT-qPCR. […] Data shown in (B) and (E) represent three biological independent replicates and error bars indicate standard deviation (SD) of three technical replicates.
(§2) (A) Schematic of an expression cassette designed to express multiple gRNAs encoded on a single transcript. The arrows indicate cleavage sites being processed by the RNase activity of dLbCpf1. (B) Schematic illustrating multiplex expression of three crRNAs each targeted to a different endogenous gene promoter in a single cell. (C) Simultaneous activation of three endogenous human genes using crRNAs expressed from a multiplex transcript or from individual transcripts with dLbCpf1-VPR direct fusions (left panel), dLbCpf1-DmrA(×4) and DmrC-VPR fusions (middle panel), and dLbCpf1-DmrA(×4) and DmrC-p65 fusions (right panel). Transcripts were measured in HEK293 cells using RT-qPCR with relative mRNA expression calculated by comparison to the control sample in which no crRNA is expressed. (D) Activities of MST crRNA with different dLbCpf1-based activators in human U20S cells. Graphs showing activation of three endogenous human genes with dLbCpf1-VPR direct fusions, dLbCpf1-DmrA(×4) and DmrC-p65 fusions, and dLbCpf1-DmrA(×4) and DmrC-VPR fusions and crRNAs expressed from a multiplex single transcript (MST) or from transcripts encoding a single crRNA. RNA expression was measured by RT-qPCR and relative expression shown was calculated by comparison to a control sample in which no crRNA is expressed. (E) Schematic illustrating multiplex expression of three crRNAs each targeted to the same endogenous gene promoter in the same cell. (F) Activities of direct dLbCpf1-p65 or dLbCpf1-VPR fusions with sets of three crRNAs expressed from a multiplex transcript or from individual transcripts on the HBB, AR, or NPY1R endogenous gene promoters. Transcripts were measured in HEK293 cells using RT-qPCR with relative mRNA expression calculated by comparison to the control sample in which no crRNA is expressed. (G) Activities of dLbCpf1-DmrA(×4) and DmrC-VPR fusions or with dLbCpf1-DmrA(×4) and DmrC-p65 fusions with sets of three crRNAs expressed from a multiplex transcript or from individual transcripts on the HBB, AR, or NPY1R endogenous gene promoters. […]

AR = test: RT-qPCR activation of endogenous AR gene promoter in HEK293 cells; settings: bi-partite, with dLbCpf1 fusions harboring two, three or four DmrA domains, single crRNA
Protocol: as §1
(A) Schematic of an expression cassette designed to express multiple gRNAs encoded on a single transcript. The arrows indicate cleavage sites being processed by the RNase activity of dLbCpf1. (B) Schematic illustrating multiplex expression of three crRNAs each targeted to a different endogenous gene promoter in a single cell. […] Transcripts were measured in HEK293 cells using RT-qPCR with relative mRNA expression calculated by comparison to the control sample in which no crRNA is expressed. […] RNA expression was measured by RT-qPCR and relative expression shown was calculated by comparison to a control sample in which no crRNA is expressed. […] Transcripts were measured in HEK293 cells using RT-qPCR with relative mRNA expression calculated by comparison to the control sample in which no crRNA is expressed. […]

NPY1R = test: RT-qPCR activation of endogenous NPY1R gene promoter in HEK293 cells; settings: single crRNA
Protocol: as §1, §2

HBB, AR, and NPY1R = test: Simultaneous (multiplex) activation of three endogenous genes in HEK293 cells, RT-qPCR; settings: multiplex transcript vs single crRNA, HEK293, across the dLbCpf1-based activators
From the text: (A) Schematic of an expression cassette designed to express multiple gRNAs encoded on a single transcript. The arrows indicate cleavage sites being processed by the RNase activity of dLbCpf1. (B) Schematic illustrating multiplex expression of three crRNAs each targeted to a different endogenous gene promoter in a single cell. (C) Simultaneous activation of three endogenous human genes using crRNAs expressed from a multiplex transcript or from individual transcripts with dLbCpf1-VPR direct fusions (left panel), dLbCpf1-DmrA(×4) and DmrC-VPR fusions (middle panel), and dLbCpf1-DmrA(×4) and DmrC-p65 fusions (right panel). Transcripts were measured in HEK293 cells using RT-qPCR with relative mRNA expression calculated by comparison to the control sample in which no crRNA is expressed. […] RNA expression was measured by RT-qPCR and relative expression shown was calculated by comparison to a control sample in which no crRNA is expressed. […] Transcripts were measured in HEK293 cells using RT-qPCR with relative mRNA expression calculated by comparison to the control sample in which no crRNA is expressed. […] Transcripts were measured in HEK293 cells using RT-qPCR with relative mRNA expression calculated by comparison to the control sample in which no crRNA is expressed. […] Cells were collected at various time points and relative mRNA expression levels were measured by RT-qPCR compared to a negative control. […]

[1] = bi-partite with dLbCpf1-DmrA fusions
[2] = bi-partite, with dLbCpf1 fusions harboring two, three or four DmrA domains

| Molecule | dependence of maximal activation on A/C heterodimerizer drug (HBB; [1]) | maximum level of activation relative to direct dLbCpf1-VPR fusions (HBB; [1]) | activation of transcription (HBB; [2]) | activation of transcription (AR) | dependence of maximal activation on A/C heterodimerizer drug (NPY1R; [1]) | maximum level of activation relative to direct dLbCpf1-VPR fusions (NPY1R; [1]) | activation of transcription (NPY1R; [2]) | magnitude of activation somewhat lower than with expression of a single crRNA (HBB, AR, and NPY1R) [%] |
| --- | --- | --- | --- | --- | --- | --- | --- | --- |
| DmrC-VPR: CAG-DmrC-NLS-FLAG-VPR; DmrC dimerization domain fused to VPR activator (SEQ ID NO: 49) | dependent on the presence of the A/C heterodimerizer drug | approximately half | activation | lack of an effect | dependent on the presence of the A/C heterodimerizer drug | approximately half | activation | – |
| multiplex crRNAs: three LbCpf1 crRNAs (HBB, AR, NPY1R) encoded on a single U6-driven transcript (SEQ ID NO: 58) (nucleic acid, misc_feature 1..397 crRNAs from Figure 2b) guide: GAGGGCCTATTTCCCATGATTCCTTCATATTTGCATATACGATACAAGGCTGTTAGAGAGATAATTAGAATTAATTTGACTGTAAACACAAAGATATTAGTACAAAATACGTGACGTAGAAAGTAATAATTTCTTGGGTAGTTTGCAGTTTTAAAATTATGTTTTAAAATGGACTATCATATGCTTACCGTAACTTGAAAGTATTTCGATTTCTTGGCTTTATATATCTTGTGGAAAGGACGAAACACCGAATTTCTACTAAGTGTAGATTACTGATGGTATGGGGCCAAAATTTCTACTAAGTGTAGATCTCTAGGAACCCTCAGCCCCAATTTCTACTAAGTGTAGATAAGCCTCGGGAAACTGCCCTAATTTCTACTAAGTGTAGATTTTTTTT | – | – | – | – | – | – | – | 18 to 55 |
